Data on 10 compounds can be found in patent US20260335223A1, “Topical Copolymer Formulations for Hydrophobic Drug Delivery” (1376683 B.C. LTD, priority 2023, published 2026).

Molecules are shown by their SMILES. Values after ≈ are worked out from the molar mass of the structure shown.

For series [1] the following is noted: background statement; cited from earlier work.
A short description of series [2]: Preparation of homogenous aqueous carboxymethyl cellulose (CMC) gel. In kind it is physicochemical. The source says: This Example illustrates that DBC3333 allowed for CBD, CBN, finasteride and docetaxel to be prepared within aqueous carboxymethyl cellulose (CMC) gels for topical use. […]
The nature of series [3]: Skin permeation, Franz diffusion cell. The note with it: 3 hours.
Text: To collect the data illustrated in this Example, fresh pig skin is placed on a Franz diffusion cell and the formulation of interest is applied to the outer skin surface. After three hours the cell is dismantled and the exposed circular area excised. […] The amount of drug in each section is then quantitated and expressed at mass of drug/gram of tissue.
For cannabinoid aqueous gel preparation for skin permeation study and therapeutic efficacy studies, a water-based gel comprised of water, phenoxyethanol, ethylhexyl glycerin, acrylates/C10-30 alkyl acrylate crosspolymer, sodium hydroxide and allantoin, was used as the gel base. Gel base and diblock copolymer were weighed, mixed together and heated using a microwave for 4 seconds. A homogenous gel containing diblock copolymer was achieved via levigation of the mixture. Gel base without diblock copolymer was weighed and used for the control formula. Commercial cannabinoid-containing extracts containing known quantities of cannabinoid were weighed and dissolved in a pre-weighed amount of cacao butter over 45 °C heat. The cacao butter cannabinoid mixture was then weighed and incorporated into the gel base, with or without diblock copolymer, via levigation to produce the final gel samples. Cannabinoid content of the final gel samples was analyzed using HPLC. […] Gel samples were stored in air-tight containers at 4 °C until the time of use.
For carboxymethyl cellulose (CMC) gel and Glaxal® base preparation for skin permeation study of cannabidiol (CBD), curcumin, capsaicin and finasteride, CMC gel was made using medium viscosity CMC as a 2% w/v aqueous solution following overnight stirring. […] For CMC preparations containing DBC, DBC was weighed into a glass vial and a small volume of the drug of interest in acetonitrile:methanol (50:50) was added to dissolve all. The solution was then dried for 2 hours in a warm oven (50 °C). In all cases the ratio of DBC:drug was 95:5. A known weight of CMC gel was then added to the warmed vial containing the dried DBC/drug mixture and vortexed to disperse and dissolve all drug. Glaxal® base was used as received. Glaxal® base containing drug was prepared by first weighing drug and dissolving in a known volume of ethanol or methanol. The ethanol or methanol drug solution was then added to a weighed amount of Glaxal® base followed by levigation of the mixture. For CBD, capsaicin, docetaxel and finasteride, it was not possible to prepare CMC gels without the use of DBC, due to drug insolubility. Therefore Glaxal® base preparations containing these drugs were employed as DBC-free comparison groups (control) for skin permeation studies.
For carboxymethyl cellulose (CMC) gel and Glaxal® base preparation for skin permeation study of docetaxel, 2% CMC gel was prepared as described above. Docetaxel (DTX) 6 mg was weighed into 190 μL of acetonitrile and 10 μL of 3H radiolabeled DTX was added. Then 66 μL (i.e., 2 mg of drug) was pipetted into a vial with 40 mg of DBC to dissolve all. The contents were dried down and 1 mL of warm 2% CMC gel was added with vortexing to dissolve all DBC and drug as a micellar solution. For Glaxal® paste 66 μL of the drug solution was dried down to approximately 20 μL and 1 gram of Glaxal® base added to disperse the drug.
Fresh pig skin was obtained from a butcher and defatted to 5 mm thickness and shaved. 2 cm^2 pieces were cut with scissors and placed on Franz diffusion cells filled with PBS and clamped. 100 mg of each formulation was weighed and placed on top of the tissue and capped. The cells were placed in a 37 °C humid incubator for three hours and then dismantled. The tissue was washed three times with PBS and the centre drug-loaded circle of tissue was cut out with scissors and snap frozen. Tissues were sectioned by cryosectioning into 50 μm cuts pooled into groups of five.
The nature of series [4]: Aqueous solubility with/without diblock copolymer (visual, film rehydration).
Experimental: In these studies the cannabinoid and diblock copolymer are dissolved in ethanol and dried to a film. Warm water is added and solubility is assessed by an optically clear solution or via HPLC or UV/Vis spectrophotometry.
Specific methodologies for aqueous solubility studies were as follows. Drug solutions having a concentration of 10 mg/mL were prepared by weighing drug and dissolving in an appropriate amount of ethanol in glass vials. Control drug samples (no diblock copolymer) were prepared by measuring 1 mL of room temperature distilled water in a glass vial and adding an appropriate volume of 10 mg/mL ethanol drug solution, followed by gentle mixing.
Drug samples with diblock copolymer (60:40 MePEG: PLLA, MW 3333 Da “DBC3333”; 57:43 MePEG:PCL, MW 1320 Da “[COMPOUND LEFT OUT]”; 40:60 MePEG:PCL, MW 1890 Da “PCL10”; 30:70 MePEG:PCL, MW 12000 Da “PCL61”) were prepared by weighing diblock copolymer into glass vials then adding 800 microlitres ethanol followed by an appropriate volume of 10 mg/mL ethanol drug solution. The diblock copolymer was dissolved in the ethanol solution via gentle mixing and the solvent was then evaporated via warm oven heating at approximately 50 °C. Once completely dry, 1 ml distilled water was added to the vials followed by gentle mixing. All vials were capped and left at room temperature for 12 hours, at which time the vials were photographed for evidence of precipitation.
A short description of series [5]: Limit of aqueous solubility with/without PCL25 (HPLC or UV/VIS). In kind it is physicochemical. The note with it: water. As for the experimental part:
Aqueous solubility studies involving diblock copolymer PCL25 (63:37 MePEG:PCL MW 7900 Da) were carried out as follows. 1 mg of drug (either paclitaxel, capsaicin or curcumin) was added to glass vials, designated as either “control” or “diblock copolymer”. Diblock copolymer was omitted from control vials and 100 mg PCL25 was added to diblock copolymer vials. The contents of all vials were then dissolved in 300 microlitres of acetonitrile. The contents were dried at 60 °C for two hours and then 1 mL of warm water (40 °C) was added with vortexing for five minutes. To determine the limit of drug solubility, the contents of each vial were then placed in a microcentrifuge tube and centrifuged at 14000×g for 3 minutes to sediment any undissolved solids. The supernatant was diluted 50% in acetonitrile and the drug was quantitated by HPLC for paclitaxel and capsaicin or by UV/VIS spectrometry (420 nm) for curcumin after 100 fold dilution in acetonitrile for this drug. HPLC conditions were detection at 228 nm for both drugs and a mobile phase of 60:40 (paclitaxel) or 50:50 (capsaicin) acetonitrile:water flowing at 1 mL/min. Calibration standard for all drugs were run in acetonitrile.

Where [6] appears, read: topical, with DBC3333 vs formulation without.
Where [7] appears, read: control, no diblock copolymer, drug 300 μg/mL.
Setting [8] is: control, no diblock copolymer, drug 600 μg/mL.
[9] abbreviates: control, no diblock copolymer, drug 1000 μg/mL.
[10] abbreviates: diblock 0 mg/ml, drug 0.5 mg/ml.
The mark [11] stands for this setting: diblock (name withheld) 50 mg/ml, drug 1 mg/ml.
[12] abbreviates: diblock (name withheld) 50 mg/ml, drug 2 mg/ml.
[13] abbreviates: diblock (name withheld) 50 mg/ml, drug 3 mg/ml.
[14] abbreviates: diblock (name withheld) 50 mg/ml, drug 4 mg/ml.
Setting [15] is: with DBC3333 50 mg/mL, drug 300 μg/mL.
Where [16] appears, read: with DBC3333 50 mg/mL, drug 600 μg/mL.
The mark [17] stands for this setting: with DBC3333 50 mg/mL, drug 1000 μg/mL.
The mark [18] stands for this setting: with DBC3333 50 mg/mL, drug 2000 μg/mL.
Setting [19] is: with DBC3333 50 mg/mL, drug 3000 μg/mL.
[20] abbreviates: with diblock copolymer PCL25 100 mg/mL.
Where [21] appears, read: control, no diblock copolymer, drug 1 μg/mL.
The mark [22] stands for this setting: control, no diblock copolymer, drug 10 μg/mL.
The mark [23] stands for this setting: control, no diblock copolymer, drug 100 μg/mL.
Setting [24] is: control, no diblock copolymer, drug 250 μg/mL.
[25] abbreviates: control, no diblock copolymer, drug 500 μg/mL.
Setting [26] is: with DBC3333 20 mg/mL, drug 250 μg/mL.
Setting [27] is: with DBC3333 20 mg/mL, drug 500 μg/mL.
The mark [28] stands for this setting: with DBC3333 20 mg/mL, drug 1000 μg/mL.
[29] abbreviates: with DBC3333 20 mg/mL, drug 2000 μg/mL.
The mark [30] stands for this setting: with DBC3333 20 mg/mL, drug 3000 μg/mL.

Consider `CCCCCc1cc(O)c2c(c1)OC(C)(CCC=C(C)C)C=C2` (stereo not drawn) [CBC, cannabichromene], for which the Water solubility in series [1] was approximately 1 µg/mL.

Usually Solubility stands for the dissolved amount per volume that the medium holds. A lower Solubility goes with little dissolved substance. As to `C=C(C)[C@@H]1CCC(C)=C[C@H]1c1c(O)cc(CCCCC)cc1O` [CBD, cannabidiol], the “Preparation of homogenous CMC gel” value in series [2] (with DBC3333) was “allowed”; in series [2] (with diblock copolymer (name withheld)) it was “allowed”; in series [2] (without diblock copolymer), “not possible to prepare homogenous CMC gel preparations”. The Water solubility in series [1] is approximately 1 µg/mL. Besides, the Skin permeation entry in series [3] (CMC gel with diblock copolymer (name withheld) vs identical CBD content in Glaxal base) and in series [3] (setting [6]) was “enhanced skin permeation” throughout. The Aqueous solubility entry in series [4] (setting [7]) is “Insol”; in series [4] (setting [8]) it was “Insol”; in series [4] (setting [9]) it was “Insol”; in series [4] (setting [15]), “Soluble”; in series [4] (setting [16]), “Soluble”; in series [4] (setting [17]) it was “Soluble”. Also, the Aqueous solubility entry in series [4] (setting [18]) is “Partially”; in series [4] (setting [19]) it was “Insol”. Besides, the Solubility entry in series [4] (setting [10]) is listed as “Insol”; in series [4] (diblock 0 mg/ml, drug 1 mg/ml), “Insol”; in series [4] (setting [11]), “soluble”; in series [4] (setting [12]), “soluble”; in series [4] (setting [13]), “Partially”; in series [4] (setting [14]), “Insol”.

With `CCCCCc1cc(O)c(C/C=C(\C)CCC=C(C)C)c(O)c1` [CBG, cannabigerol], the Water solubility in series [1] is approximately 1 µg/mL. For the same compound, the Aqueous solubility entry in series [4] (setting [7]) was “Insol”; in series [4] (setting [15]), “Soluble”; in series [4] (setting [16]), “Soluble”; in series [4] (setting [17]) it was “Soluble”; in series [4] (setting [18]), “Partially”; in series [4] (setting [19]), “Insol”.

`CCCCCc1cc(O)c2c(c1)OC(C)(C)c1ccc(C)cc1-2` [CBN, cannabinol]: the “Preparation of homogenous CMC gel” value in series [2] (with DBC3333) was “allowed”; in series [2] (without diblock copolymer) it was “not possible to prepare homogenous CMC gel preparations”. Besides, in series [1], the Water solubility is approximately 1 µg/mL. In addition, in series [3] (setting [6]), the Skin permeation entry is “enhanced skin permeation”.

`COc1cc(CNC(=O)CCCC/C=C/C(C)C)ccc1O` [Capsaicin, capsaicin]: the Solubility is 10 µg/mL (≈ 32.7 µM) in series [5] (control, no diblock copolymer) and 506 µg/mL (≈ 1660 µM) in series [5] (setting [20]). Further, the “Preparation of homogenous CMC gel” value was “allowed” in series [2] (with PCL25) and “not possible to prepare homogenous CMC gel preparations” in series [2] (without diblock copolymer). Further, in series [3] (CMC gel with PCL25 vs identical capsaicin content in Glaxal base), the Skin permeation result is “enhanced skin permeation”.

Take `CC(=O)O[C@H]1C(=O)[C@@]2(C)[C@H]([C@H](OC(=O)c3ccccc3)[C@]3(O)C[C@H](OC(=O)[C@H](O)[C@@H](NC(=O)c4ccccc4)c4ccccc4)C(C)=C1C3(C)C)[C@]1(OC(C)=O)CO[C@@H]1C[C@@H]2O` [Paclitaxel, paclitaxel]: the Solubility came to 2 µg/mL (≈ 2.34 µM) in series [5] (control, no diblock copolymer) and 488 µg/mL (≈ 571 µM) in series [5] (setting [20]).

For `CCCCCc1cc(O)c2c(c1)OC(C)(C)[C@@H]1CCC(C)=C[C@@H]21` [THC, tetrahydrocannabinol], the Water solubility in series [1] is approximately 1 µg/mL. Besides, the Skin permeation result in series [3] (setting [6]) is on record as “enhanced skin permeation”. Moreover, the Aqueous solubility result in series [4] (setting [21]), in series [4] (setting [22]), in series [4] (setting [23]), in series [4] (setting [24]), in series [4] (setting [25]) and in series [4] (setting [9]) was “Insol” throughout. Also, the Aqueous solubility entry in series [4] (control, no diblock copolymer, drug 2000 μg/mL) is “Insol”; in series [4] (setting [26]), “Soluble”; in series [4] (setting [27]), “Soluble”; in series [4] (setting [28]) it was “Partially”; in series [4] (setting [29]), “Insol”; in series [4] (setting [30]), “Insol”. For the same compound, the Aqueous solubility result in series [4] (with DBC3333 50 mg/mL, drug 500 μg/mL) was “Soluble”; in series [4] (setting [17]), “Soluble”; in series [4] (setting [18]) it was “Soluble”; in series [4] (setting [19]), “Partially”; in series [4] (with DBC3333 50 mg/mL, drug 4000 μg/mL) it was “Insol”. Also, the Solubility result in series [4] (setting [10]) was “Insol”; in series [4] (diblock 0 mg/ml, drug 1 mg/ml), “Insol”; in series [4] (setting [11]), “soluble”; in series [4] (setting [12]) it was “soluble”; in series [4] (setting [13]), “soluble”; in series [4] (setting [14]), “Soluble”.

With `CCCCCc1cc2c(c(O)c1C(=O)O)[C@@H]1C=C(C)CC[C@H]1C(C)(C)O2` [THCA, tetrahydrocannabinolic acid], the Skin permeation result in series [3] (setting [6]) is recorded as “enhanced skin permeation”. The Aqueous solubility entry in series [4] (setting [21]) is listed as “Soluble”; in series [4] (setting [22]) it was “Insol”; in series [4] (setting [23]), “Insol”; in series [4] (setting [24]), “Insol”; in series [4] (setting [25]) it was “Insol”; in series [4] (setting [9]), “Insol”. Further, the Aqueous solubility entry in series [4] (setting [26]) is on record as “Soluble”; in series [4] (setting [27]), “Soluble”; in series [4] (setting [28]), “Soluble”; in series [4] (setting [29]) it was “Partially”; in series [4] (setting [30]), “Insol”. The Solubility entry in series [4] (setting [10]) was “Insol”; in series [4] (diblock 0 mg/ml, drug 1 mg/ml), “Insol”; in series [4] (setting [11]) it was “soluble”; in series [4] (setting [12]), “soluble”; in series [4] (setting [13]) it was “soluble”; in series [4] (setting [14]), “Soluble”.

In the case of `CC(=O)O[C@@]12CO[C@@H]1C[C@H](O)[C@@]1(C)C(=O)[C@H](O)C3=C(C)[C@@H](OC(=O)[C@H](O)[C@@H](NC(=O)OC(C)(C)C)c4ccccc4)C[C@@](O)([C@@H](OC(=O)c4ccccc4)[C@H]21)C3(C)C` [docetaxel], the “Preparation of homogenous CMC gel” value was “allowed” in series [2] (with DBC3333) and “not possible to prepare homogenous CMC gel preparations” in series [2] (without diblock copolymer). Also, in series [3] (setting [6]), the Skin permeation result is on record as “enhanced skin permeation”.

Take `CC(C)(C)NC(=O)[C@H]1CC[C@H]2[C@@H]3CC[C@H]4NC(=O)C=C[C@]4(C)[C@H]3CC[C@]12C` [finasteride]: the “Preparation of homogenous CMC gel” value in series [2] (with DBC3333) is reported as “allowed”; in series [2] (without diblock copolymer), “not possible to prepare homogenous CMC gel preparations”. The Skin permeation entry in series [3] (setting [6]) was “enhanced skin permeation”. Moreover, the Aqueous solubility entry was “Insol” in series [4] (setting [7]); “Insol” in series [4] (setting [8]); “Insol” in series [4] (setting [9]); “Soluble” in series [4] (setting [15]); “Partially” in series [4] (setting [16]); “Insol” in series [4] (setting [17]). In addition, the Aqueous solubility result in series [4] (setting [18]) and in series [4] (setting [19]) was “Insol” throughout.
